Source: PubChem BioAssay AID280 (DTP/NCI, 2004)
“And” between values parts separate entries of the source, which are not always exact repeats. Equal values may be shown once. Inconclusive results and toxic doses are left out.

System: nude mice, LOX melanoma ip, survival T/C
Assay: NCI In Vivo Anticancer Drug Screen. Data for tumor model Human Amelanotic Melanoma (LOX) (intraperitoneal) in NU/NU BALB/C (nude) mice
Conditions: endpoint: median survival time, higher = longer survival
Method: The antitumor activity of compounds was measured in mice bearing transplantable tumors. Survival or tumor size were measured and the results are expressed as the measurement made in the treated group (T) divided by the measurement made in the vehicle treated control group (C). The tumor model used in this assay is Human Amelanotic Melanoma (LOX) (intraperitoneal) in NU/NU BALB/C (nude) mice

[1] = dose: 50.0 mg/kg/injection, schedule: Q04DX003 (ip), vehicle: Klucel (hydroxypropylcellulose) (HPC)
[2] = dose: 100.0 mg/kg/injection, schedule: Q04DX003 (ip), vehicle: Klucel (hydroxypropylcellulose) (HPC)
[3] = dose: 600.0 mg/kg/injection, schedule: Q04DX003 (ip), vehicle: Klucel (hydroxypropylcellulose) (HPC)
[4] = dose: 1200.0 mg/kg/injection, schedule: Q04DX003 (ip), vehicle: Klucel (hydroxypropylcellulose) (HPC)
[5] = dose: 75.0 mg/kg/injection, schedule: Q04DX003 (ip), vehicle: saline with Tween-80
[6] = dose: 150.0 mg/kg/injection, schedule: Q04DX003 (ip), vehicle: saline with Tween-80
[7] = dose: 300.0 mg/kg/injection, schedule: Q04DX003 (ip), vehicle: saline with Tween-80
[8] = dose: 62.5 mg/kg/injection, schedule: Q04DX003 (ip), vehicle: saline with Tween-80
[9] = dose: 125.0 mg/kg/injection, schedule: Q04DX003 (ip), vehicle: saline with Tween-80
[10] = dose: 250.0 mg/kg/injection, schedule: Q04DX003 (ip), vehicle: saline with Tween-80
[11] = dose: 500.0 mg/kg/injection, schedule: Q04DX003 (ip), vehicle: saline with Tween-80
[12] = dose: 37.5 mg/kg/injection, schedule: Q04DX003 (ip), vehicle: saline with Tween-80
[13] = dose: 200.0 micrograms/kg/injection, schedule: Q04DX003 (ip), vehicle: saline

For `COc1cc2c(cc1OC)[C@@H]1C(=O)c3ccc4c(c3O[C@@H]1CO2)C[C@H](C(C)C)O4`, the T/C (dose: 18.75 mg/kg/injection, schedule: Q04DX003 (ip), vehicle: Klucel (hydroxypropylcellulose) (HPC)) was 113 % of control and the T/C (dose: 37.5 mg/kg/injection, schedule: Q04DX003 (ip), vehicle: Klucel (hydroxypropylcellulose) (HPC)) was 110 % of control.

With `CN(C)CN1C(=O)S/C(=C2\C(=O)N(CN(C)C)c3ccccc32)C1=O` the T/C [1] was 119 % of control and 101 % of control, the T/C [2] was 110 % of control and 97 % of control and the T/C (dose: 200.0 mg/kg/injection, schedule: Q04DX003 (ip), vehicle: Klucel (hydroxypropylcellulose) (HPC)) was 108 % of control and 97 % of control.

`CC(C)(C)c1ccc(C(=O)N2CCOC23CCCCC3)cc1` was tested, and the T/C (dose: 75.0 mg/kg/injection, schedule: Q04DX003 (ip), vehicle: Klucel (hydroxypropylcellulose) (HPC)) was 98 % of control, the T/C (dose: 150.0 mg/kg/injection, schedule: Q04DX003 (ip), vehicle: Klucel (hydroxypropylcellulose) (HPC)) was 95 % of control and the T/C (dose: 300.0 mg/kg/injection, schedule: Q04DX003 (ip), vehicle: Klucel (hydroxypropylcellulose) (HPC)) was 92 % of control. For the same molecule, the T/C [3] was 107 % of control and the T/C [4] was 107 % of control.

`CC(C)NC(=O)OCc1c(COC(=O)NC(C)C)c(-c2ccc(Cl)c(Cl)c2)n2c1CCC2` was tested, and the T/C [5] was 238 % of control, the T/C (dose: 75.0 mg/kg/injection, schedule: Q04DX003 (ip), vehicle: saline) was 152 % of control and the T/C [6] was 324 % of control. For the same molecule, the T/C (dose: 150.0 mg/kg/injection, schedule: Q04DX003 (ip), vehicle: saline) was 210 % of control, the T/C [7] was 313 % of control and the T/C (dose: 300.0 mg/kg/injection, schedule: Q04DX003 (ip), vehicle: saline) was 178 % of control. For the same molecule, the T/C (dose: 600.0 mg/kg/injection, schedule: Q04DX003 (ip), vehicle: saline) was 344 % of control and the T/C (dose: 1200.0 mg/kg/injection, schedule: Q04DX003 (ip), vehicle: saline) was 344 % of control.

`CN(C)/N=N/c1nc[nH]c1C(N)=O` was tested, and the T/C [2] was 107 % of control.

With `CO[C@@]12[C@H](COC(N)=O)C3=C(C(=O)C(C)=C(N)C3=O)N1C[C@@H]1N[C@@H]12` the T/C (dose: 1.34 mg/kg/injection, schedule: Q04DX003 (ip), vehicle: saline) was 116 % of control, the T/C (dose: 1.34 mg/kg/injection, schedule: Q04DX003 (iv), vehicle: saline) was 119 % of control and the T/C (dose: 2.0 mg/kg/injection, schedule: Q04DX003 (ip), vehicle: saline) was 111 % of control. The T/C (dose: 2.0 mg/kg/injection, schedule: Q04DX003 (iv), vehicle: saline) was 166 % of control, the T/C (dose: 3.0 mg/kg/injection, schedule: Q04DX003 (ip), vehicle: saline) was 272 % of control and the T/C (dose: 3.0 mg/kg/injection, schedule: Q04DX003 (iv), vehicle: saline) was 168 % of control. For the same molecule, the T/C (dose: 4.5 mg/kg/injection, schedule: Q04DX003 (ip), vehicle: saline) was 116 % of control and the T/C (dose: 4.5 mg/kg/injection, schedule: Q04DX003 (iv), vehicle: saline) was 150 % of control.

`NC(=O)c1cc(Cl)nc2nc(Cl)nc(N)c12` was tested, and the T/C [6] was 92 % of control, the T/C [7] was 111 % of control and the T/C (dose: 600.0 mg/kg/injection, schedule: Q04DX003 (ip), vehicle: saline with Tween-80) was 94 % of control.

For `Nc1nc2n[nH]nc2c(=O)[nH]1`, the T/C (dose: 37.5 mg/kg/injection, schedule: Q04DX003 (ip), vehicle: suspension in saline) was 164 % of control, the T/C (dose: 75.0 mg/kg/injection, schedule: Q04DX003 (ip), vehicle: suspension in saline) was 177 % of control and the T/C (dose: 150.0 mg/kg/injection, schedule: Q04DX003 (ip), vehicle: suspension in saline) was 217 % of control. The T/C (dose: 300.0 mg/kg/injection, schedule: Q04DX003 (ip), vehicle: suspension in saline) was 251 % of control.

In the case of `C/C(=N\NC(=O)c1ccccc1O)c1cccc(/C(C)=N/NC(=O)c2ccccc2O)n1`, the T/C (dose: 50.0 mg/kg/injection, schedule: Q04DX003 (ip), vehicle: saline) is reported as 116 % of control and the T/C (dose: 100.0 mg/kg/injection, schedule: Q04DX003 (ip), vehicle: saline) is reported as 154 % of control.

In the case of `COc1cc(C)c(C2NC(=O)c3ccccc3N2)cc1C` (configuration not stated), the T/C [3] is reported as 166 % of control and the T/C [4] is reported as 192 % of control.

`CCC(c1ccc(O)cc1)C(CC)c1ccc(OCCN)cc1` (configuration not stated) was tested, and the T/C [8] was 88 % of control, the T/C [9] was 104 % of control and the T/C [10] was 93 % of control. The T/C [11] was 92 % of control and the T/C (dose: 1000.0 mg/kg/injection, schedule: Q04DX003 (ip), vehicle: saline with Tween-80) was 93 % of control.

With `CCOC(=O)Nc1cc(NC(C)/C(=N/O)c2ccccc2)c([N+](=O)[O-])c(N)n1` (configuration not stated) the T/C [1] was 97 % of control, the T/C (dose: 51.84 mg/kg/injection, schedule: Q04DX003 (ip), vehicle: Klucel (hydroxypropylcellulose) (HPC)) was 109 % of control and the T/C (dose: 86.4 mg/kg/injection, schedule: Q04DX003 (ip), vehicle: Klucel (hydroxypropylcellulose) (HPC)) was 104 % of control. For the same molecule, the T/C (dose: 144.0 mg/kg/injection, schedule: Q04DX003 (ip), vehicle: Klucel (hydroxypropylcellulose) (HPC)) was 89 % of control and the T/C (dose: 240.0 mg/kg/injection, schedule: Q04DX003 (ip), vehicle: Klucel (hydroxypropylcellulose) (HPC)) was 101 % of control.

`COc1ccc(C[C@@H]2NC[C@@H](O)[C@@H]2OC(C)=O)cc1` was tested, and the T/C [12] was 101 % of control, the T/C [5] was 101 % of control and the T/C [6] was 103 % of control. For the same molecule, the T/C [7] was 101 % of control.

In the case of `Cc1nc(C(Cl)(Cl)Cl)[nH]c(=O)c1SCCO`, the T/C (dose: 75.0 mg/kg/injection, schedule: Q04DX003 (ip), vehicle: distilled water + Tween-80 + alcohol) is reported as 102 % of control, the T/C (dose: 150.0 mg/kg/injection, schedule: Q04DX003 (ip), vehicle: distilled water + Tween-80 + alcohol) is reported as 116 % of control and the T/C (dose: 300.0 mg/kg/injection, schedule: Q04DX003 (ip), vehicle: distilled water + Tween-80 + alcohol) is reported as 101 % of control. The T/C (dose: 600.0 mg/kg/injection, schedule: Q04DX003 (ip), vehicle: distilled water + Tween-80 + alcohol) was 117 % of control.

With `C=CCNC(=O)c1ccccc1SC(C)=O` the T/C [12] was 100 % of control, the T/C [5] was 95 % of control and the T/C [7] was 93 % of control.

For `NC(=S=O)C(N)=S=O`, the T/C [8] was 109 % of control, the T/C [9] was 105 % of control and the T/C [10] was 105 % of control. For the same molecule, the T/C [11] was 105 % of control.

`O=C1C2=C(C(=O)c3cnccc31)C1C=CC2CC1` (configuration not stated) was tested, and the T/C (dose: 25.0 mg/kg/injection, schedule: Q04DX003 (ip), vehicle: DMSO) was 93 % of control.

In the case of `Cc1c(O)/c(=C\O)c2nc3c(=O)ccc(C(=O)NCCN(C)C)c3[nH]c2c1=O`, the T/C (dose: 25.0 mg/kg/injection, schedule: Q04DX003 (ip), vehicle: water) is reported as 95 % of control and 97 % of control, the T/C (dose: 50.0 mg/kg/injection, schedule: Q04DX003 (ip), vehicle: water) is reported as 104 % of control and 98 % of control and the T/C (dose: 86.4 mg/kg/injection, schedule: Q04DX003 (ip), vehicle: water) is reported as 95 % of control. For the same molecule, the T/C (dose: 100.0 mg/kg/injection, schedule: Q04DX003 (ip), vehicle: water) was 101 % of control and 104 % of control and the T/C (dose: 144.0 mg/kg/injection, schedule: Q04DX003 (ip), vehicle: water) was 99 % of control.

In the case of `O=C1C=C(N2CC2)C(=O)C(N2CC2)=C1N1CC1`, the T/C (dose: 25.0 micrograms/kg/injection, schedule: Q04DX003 (ip), vehicle: saline) is reported as 177 % of control, the T/C (dose: 43.0 micrograms/kg/injection, schedule: Q04DX003 (ip), vehicle: saline) is reported as 116 % of control and the T/C (dose: 100.0 micrograms/kg/injection, schedule: Q04DX003 (ip), vehicle: saline) is reported as 220 % of control. The T/C (dose: 120.0 micrograms/kg/injection, schedule: Q04DX003 (ip), vehicle: saline) was 158 % of control, the T/C [13] was 277 % of control and the T/C (dose: 333.0 micrograms/kg/injection, schedule: Q04DX003 (ip), vehicle: saline) was 187 % of control.

In the case of `CNC(=O)/C=C/C1=CN2C(=O)c3ccc(C)c(O)c3NC(OC)C2C1` (configuration not stated), the T/C [13] is reported as 121 % of control.

With `S=c1sc2ccccc2n1CN1CCOCC1` the T/C [5] was 102 % of control and the T/C [7] was 90 % of control.

`CC1(C)Nc2cc3c(cc2-n2cccc21)oc1ccccc13` was tested, and the T/C (dose: 37.5 mg/kg/injection, schedule: Q04DX003 (ip), vehicle: DMSO) was 100 % of control, the T/C (dose: 75.0 mg/kg/injection, schedule: Q04DX003 (ip), vehicle: DMSO) was 100 % of control and the T/C (dose: 150.0 mg/kg/injection, schedule: Q04DX003 (ip), vehicle: DMSO) was 117 % of control. For the same molecule, the T/C (dose: 300.0 mg/kg/injection, schedule: Q04DX003 (ip), vehicle: DMSO) was 91 % of control.
